Results published in US20260174744A1, “COMPOUNDS, COMPOSITIONS, AND METHODS OF TREATING RNA VIRAL INFECTIONS” (priority 2024, published 2026).

Legend:
[1] = tested on: SARS-CoV-2 variants, Alphacoronavirus, Betacoronavirus, HCV, NoV, IAV, IAB
[2] = tested on: SARS-CoV-2 variants, Alphacoronavirus, Betacoronavirus, HCV, NoV, IAV, IAB; assay: organism not typed; details: read-out: EC50 against remaining viruses

## Cc1c(-c2ccc(O)cc2)n(Cc2ccc(OCCN3CCCCC3)cc2)c2ccc(O)cc12 [Pipendoxifene]
[1]
  potency against six SARS-CoV-2 variants and two coronaviruses: submicromolar potency
[2]
  EC50: 3 to 8 µM
